Tests used:
[1] = biological target: B-Raf kinase (SEQ. ID NO: 2) (Homo sapiens (Human), UniProt P15056); experiment: Biochemical Assay for B-Raf (1); conditions: Table J, biochemical assay (1); read-out: BRAF (1)
How it was run: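 Continuous PK/LDH-coupled NADH oxidation assay, A340 read for 6 h at 30° C., with 0.13 nM B-Raf, 30.1 nM MEK substrate and 1 mM ATP in Tris pH 7.5, MgCl2, DTT, detergents, 1% DMSO. Rate taken from 4–5 h window; percent inhibition vs no-compound and known-inhibitor controls; four-parameter fit gives IC50.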

A375 cells = experiment: A375 Cell Proliferation Assay (1); format: cell-based; conditions: Homo sapiens, A-375
How it was run: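 Resazurin fluorescence (excitation 540 nm, emission 600 nm, after a further 5-6 h) gave IC50s from triplicate compound dilution series.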

WM3928 cells = experiment: WM3928 Cell Proliferation Assay (1); format: cell-based
How it was run: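 IC50 was derived from resazurin fluorescence (ex 540, em 600 nm) after a 6–7 h dye incubation. Before that, cells had 67–72 h of compound exposure at 37 °C, 5% CO2.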

H2405 cells = experiment: H2405 Cell Proliferation Assay (1); format: cell-based; conditions: Homo sapiens, NCI-H2405
How it was run: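 Viability was read by resazurin reduction (ex 540 nm, em 600 nm; 5-6 h with 40 μL of 440 μM stock) after 67-72 h compound exposure at 37 °C.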

Chain of B-Raf kinase (SEQ. ID NO: 2) (P15056 416-766): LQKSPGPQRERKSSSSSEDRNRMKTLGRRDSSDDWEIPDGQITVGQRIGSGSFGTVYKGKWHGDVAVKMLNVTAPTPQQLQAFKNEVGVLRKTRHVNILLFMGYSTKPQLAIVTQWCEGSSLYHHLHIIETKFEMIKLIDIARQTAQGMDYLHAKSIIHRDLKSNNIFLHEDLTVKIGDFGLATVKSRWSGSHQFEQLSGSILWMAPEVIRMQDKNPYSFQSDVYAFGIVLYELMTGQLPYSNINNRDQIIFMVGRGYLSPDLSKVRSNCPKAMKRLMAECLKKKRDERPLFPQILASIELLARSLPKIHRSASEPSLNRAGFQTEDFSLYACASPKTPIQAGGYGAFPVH

With Cc1ccc(NC(=O)c2ccnc(C(F)(F)F)c2)cc1-c1cncc(-c2cc(NC(=O)C3CC3)ncn2)c1 [Example 397] the IC50 [1] was ≤ 100 nM, the IC50 (A375 cells) was ≤ 100 nM and the IC50 (WM3928 cells) was ≤ 100 nM. For the same compound, the IC50 (H2405 cells) was ≤ 100 nM.
With Cc1cc(F)c(NC(=O)c2ccnc(C3CC3)c2)cc1-c1cncc(-c2cc(NC(=O)C3CC3)ncn2)c1 [Example 398] the IC50 [1] was ≤ 100 nM, the IC50 (A375 cells) was ≤ 100 nM and the IC50 (WM3928 cells) was ≤ 100 nM. The IC50 (H2405 cells) was ≤ 100 nM.
With Cc1cc(F)c(NC(=O)c2ccnc(C(C)(C)F)c2)cc1-c1cncc(-c2ccnc(NC(=O)C3CC3)c2)c1 [Example 399] the IC50 [1] was ≤ 100 nM, the IC50 (A375 cells) was ≤ 100 nM and the IC50 (WM3928 cells) was ≤ 100 nM. The IC50 (H2405 cells) was ≤ 100 nM.
For Cc1ccc(NC(=O)c2ccnc(C(C)(C)F)c2)cc1-c1cc(-c2ccnc3[nH]ncc23)cnn1 [Example 400], the IC50 [1] was ≤ 100 nM, the IC50 (A375 cells) was 1000 to 10000 nM and the IC50 (WM3928 cells) was 1000 to 10000 nM. It also gave an IC50 (H2405 cells) of 1000 to 10000 nM.
With COC(=O)Nc1cc(-c2cc(-c3cc(NC(=O)c4ccnc(C(C)(C)F)c4)ccc3C)cc(OCCO)n2)ccn1 [Example 401] the IC50 [1] was ≤ 100 nM, the IC50 (A375 cells) was ≤ 100 nM and the IC50 (WM3928 cells) was ≤ 100 nM. The IC50 (H2405 cells) was 100 to 500 nM.
For COC(=O)Nc1cc(-c2cccc(-c3cc(NC(=O)c4ccnc(C(C)(C)F)c4)cnc3C)c2)ccn1 [Example 402], the IC50 [1] was ≤ 100 nM, the IC50 (A375 cells) was 100 to 500 nM and the IC50 (WM3928 cells) was 100 to 500 nM. It also gave an IC50 (H2405 cells) of 500 to 1000 nM.
In the case of COC(=O)Nc1cc(-c2ccnc(-c3cc(NC(=O)c4ccnc(C(C)(C)F)c4)ccc3C)n2)ccn1 [Example 403], the IC50 [1] is reported as ≤ 100 nM, the IC50 (A375 cells) is reported as 100 to 500 nM and the IC50 (WM3928 cells) is reported as ≤ 100 nM. For the same compound, the IC50 (H2405 cells) was 100 to 500 nM.

Reference: patent publication US12319655B2, “RAF kinase inhibitors and methods of use thereof” (Deciphera Pharmaceuticals, LLC, priority 2021, dated 2025)
